# In patent US12114987B2, “Perception loss detection” (OXFORD UNIVERSITY INNOVATION LIMITED, priority 2012, dated 2024):
# Test system: slow wave oscillations in the scalp electroencephalogram
# Text: Multiple electrodes, including Magnetic Resonance (hereinafter “MR”) compatible 32 channel electroencephalography (hereinafter “EEG”) caps (BrainCap MR, Easycap GmbH, Herrsching, Germany) are used in the illustrated example for EEG acquisition.
# Amplifiers are connected in the illustrated example using MR-safe fibre optic cables to a universal serial bus (USB) adaptor and then to a laptop computer (or other recording and EEG processing medium), which includes the processor 18 and the database 19. The laptop simultaneously records the timings of fMRI volumes (gradient onset markers), stimuli and button presses. For the paradigm in FIG. 5, samples of the electrical signals are acquired at 5000 Hz and initially referenced to channel CPz. The amplification hardware imposes a highpass filter of 0.1 Hz and a lowpass filter of 250 Hz on acquisition. The acquisition software applies a highpass filter of 0.5 Hz and a lowpass filter of 70 Hz as well as a notch filter of 50 Hz. […]
# For time-frequency analysis, the frequency power spectrum over time within the 0.5-30 Hz range is calculated using a multitaper spectral analysis (using Chronux®) with window size=3 s and step size=4s. Phasic changes in EEG absolute and relative power in the specific frequency bands of interest, i.e. beta (15-30 Hz), alpha (9-14 Hz), theta (4-8 Hz) and slow wave (0.5-1.5 Hz) bands, are calculated. […]
structure (smiles),measurement,setting,value
CC(C)c1cccc(C(C)C)c1O [propofol],"peak absolute power of slow wave oscillations (0.5-1.5 Hz band), range between subjects","16 subjects, gradual propofol administration, peak propofol level 4.0 mcg ml−1, scalp EEG",10.84-83.78 μV2
same,activity of slow wave oscillations in the scalp electroencephalogram with increasing doses,"after the human has lost verbal responsiveness, increasing doses of propofol",reaches a maximum or saturation point
